Literature values, collected in patent publication US20090035370A1, “DOSAGE FORM AND METHOD OF USE” (DRUGTECH CORPORATION, priority 2007, published 2009).
Like-named read-outs stand apart in the source and are kept apart here.

Legend:
[1] = administered orally
D2 receptor [2] = target: T1, D2 receptor (Homo sapiens, UniProt P14416); details: patients receiving 300-600 mg/day
D2 receptor [3] = target: T1, D2 receptor; details: PET
D2 receptor [4] = target: T1, D2 receptor

T1 sequence (P14416 whole entry): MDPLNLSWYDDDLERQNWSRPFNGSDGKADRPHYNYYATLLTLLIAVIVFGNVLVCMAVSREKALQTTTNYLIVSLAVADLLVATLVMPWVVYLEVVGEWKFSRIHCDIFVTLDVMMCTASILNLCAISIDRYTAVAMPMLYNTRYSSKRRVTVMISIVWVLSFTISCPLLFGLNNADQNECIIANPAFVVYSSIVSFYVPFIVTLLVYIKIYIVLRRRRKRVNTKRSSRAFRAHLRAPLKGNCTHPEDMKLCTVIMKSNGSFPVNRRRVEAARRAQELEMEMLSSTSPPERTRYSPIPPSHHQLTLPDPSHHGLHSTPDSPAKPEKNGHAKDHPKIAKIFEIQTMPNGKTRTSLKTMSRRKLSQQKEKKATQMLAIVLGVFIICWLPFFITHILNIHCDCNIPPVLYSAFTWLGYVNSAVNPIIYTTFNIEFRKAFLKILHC

OCCOCCN1CCN(C2=Nc3ccccc3Sc3ccccc32)CC1 [Quetiapine]
time to peak plasma level [1]: ≤ 1.5 h
D2 occupancy (D2 receptor [2]; 12 hours after receiving a dose): less than 20%
D2 occupancy (D2 receptor [2]; at 2 hours): ~60%
D2 occupancy (D2 receptor [3]; 2 to 3 hours after a single dose): 58-62%
D2 occupancy (D2 receptor [3]; 12 hours after the last dose): 0-27%
D2 occupancy (D2 receptor [4]; 2-3 hours after a dose): 58-64%
D2 occupancy (D2 receptor [4]; by the end of a 12-hour dosing interval): 0-27%
antipsychotic efficacy (Kapur et al. 2000): effective antipsychotic
response to treatment (patients with a first episode of schizophrenia, single daily dose): responded to treatment
